Reference: publication PMC10830684, “Effect of Oregon grape root extracts on P-glycoprotein mediated transport in in vitro cell lines” (Journal of Pharmacy & Pharmaceutical Sciences, 2024)

Legend:
[1] = biological target: P-glycoprotein (Homo sapiens, UniProt P08183); experiment: Effect on 3H-CsA and 3H-digoxin transport in Caco-2 cells; settings: for Papp (B to A) of 3H-CsA / Papp (B to A) of 3H-digoxin: Caco-2; for Papp (B to A) of 3H-CsA: 0.5 µM 3H-CsA
[2] = test system: MDCKII wild-type cells; experiment: Effect on 3H-CsA and 3H-digoxin transport in MDCKII wild-type cells; settings: MDCKII-WT; for Papp (B to A) of 3H-CsA: 0.5 µM 3H-CsA; for Papp (B to A) of 3H-digoxin: 0.5 µM 3H-digoxin
[3] = test system: Caco-2 cells; experiment: Transepithelial transport of berberine and berbamine across Caco-2 cells; assay type: in vitro ADME, human; settings: 100 µM; Caco-2 cells
Experimental: Transport of ^3H-CsA and ^3H-digoxin (0.5 µM and 1.0 µCi), MDR1 substrates, were performed using transport buffer consisting of HBSS with 10 mM HEPES and 25 mM D-glucose at a pH of 6.8 for the apical (A) compartment and 7.4 for the basolateral (B) compartment. Experiments were performed at 37°C, 5% CO2, and 95% relative humidity. Cells in the Transwell® inserts were washed 3 times with a transport buffer and allowed to equilibrate for 30 min prior to the addition of test compounds. […] To evaluate the efflux mechanism involved with berberine and berbamine, 100 µM of berberine and berbamine were placed in the donor chamber and 100 µL samples were collected in the receiver chamber at 0, 0.5, 1.0, 1.5, 2.0, 2.5, and 3.0 h and analyzed by HPLC. Each experiment was performed in duplicate and repeated for each condition tested. For experiments performed in “non-sink” conditions, 100 µL aliquots were taken from the donor and receiver chambers at the beginning and from the receiver chamber at 0.5, 1.0, 1.5, 2.0, 2.5, and 3.0 h. An equal volume of 100 µL was replaced in the chamber at each sample time point. “Non-sink” conditions were performed when less than 10% of compound is transported across cells during the transport experiment such that a concentration gradient was always present. For the “sink” condition experiments, the entire receiver volume was replaced at each time interval and a 100 µL aliquot was taken from the receiver volume for scintillation counting. A 100 µL sample was taken from the donor chamber at 3 h in order to calculate the mass balance of radioactivity to determine if adsorption to the cell culture transport apparatus had occurred. Each sample was placed in 0.9 mL of scintillation fluor (Cytoscint ES, ICN, Cosa Mesa, CA, USA) and read on a Beckman LS 6500 (Palo Alto, CA, USA) scintillation counter for ^3H activity. For berberine and berbamine analysis, 100 µL aliquot was assayed by HPLC.
(§1) The apparent permeability (Papp) was calculated using the following equation [40]: Papp=dQ/dt×1/A×C0
Where A is the surface area of the monolayer (4.71 cm^2) and C0 is the initial concentration of radiolabeled probe substrate in the donor compartment. dQ/dt is the slope of the steady-state rate constant. The efflux ratio was determined by dividing the Papp in the B to A direction by the Papp in the A to B direction: Efflux ratio=PappB to A/PappA to B
A Waters 2690 separations module with a Model 996 photodiode array detector with the Millennium 32 Chromatograph Manager version 3.0 software (Waters Corporation, Milford, MA, USA) was used for HPLC analysis. […] All the standards and samples were filtered (0.2 µm) prior to injection. Ten µL was injected onto a 250 × 4.6 mm i.d., […], Zorbax Eclipse X DB-C18 Column (Agilent Technologies, Palo Alto, CA, USA) with a 3.9 × 20 mm i.d. Symmetry® C18 guard column, with an isocratic mobile phase of 32:68 acetonitrile:buffer. The buffer consisted of 30 mM ammonium acetate and 14 mM TEA and was adjusted to pH 4.85 with acetic acid. A flow rate of 1 mL/min and UV absorption at 254 nm was used for analysis. The retention time of berberine and berbamine was 7.84 min and 3.03 min, respectively. The cumulative amount of transport was determined using the corresponding peak area for berberine or berbamine. The cumulative amount of berberine or berbamine transported across the cell membrane was evaluated as a functionof time. The Papp was calculated by the following equation: […]

[4] = test system: Caco-2 cells; experiment: LDH leakage cytotoxicity assay in Caco-2 cells; assay type: cell-based, human; settings: 4 hours exposure
Description: We initiated cytotoxicity experiments with the Caco-2, MDCKII-MDR1 and MDCKII-wild type cells on Day 7 (Caco-2) and Day 4 (MDCKII-MDR1 and MDCKII-wild type) after the initial plating of the cells at 2.5 × 10^3 cells/well in 48-well plates (Becton Dickinson, Franklin Lakes, NJ, USA). See details of preparation for the cytotoxicity experiments in Supplementary Material.
We initiated cytotoxicity experiments with the Caco-2, MDCKII-MDR1 and MDCKII-wild type cells on Day 7 (Caco-2) and Day 4 (MDCKII-MDR1 and MDCKII-wild type) after the initial plating of the cells at 2.5x10^3 cells/well in 48-well plates (Becton Dickinson, Franklin Lakes, NJ, USA). Stock solutions of 10 mM berberine or berbamine were prepared by dissolving the compounds in DMSO (berberine) or distilled water (berbamine).
The LDH enzymatic activities were assayed using the method of Mitchell et al.(1). […] Enzyme leakage into the medium was expressed as the percentage of total cellular LDH. The MTT (3-(4,5-dimethythiazole-2yl)-2,5-diphenyl tetrazolium bromide) reduction assay was done according to Mosmann (2). This assay was conducted immediately with the same cells used in the LDH study. The results were expressed as the percentage of negative controls.

[5] = biological target: T1, P-glycoprotein (MDCKII-MDR1 cells) (Homo sapiens, UniProt P08183); experiment: Transepithelial transport of berberine and berbamine across MDCKII-MDR1 cells; assay type: in vitro ADME; design: expressed in transfected cells; host or cells: MDCKII-MDR1 (Madin-Darby canine kidney II cells overexpressing MDR1); settings: 100 µM
Experimental: Transport of ^3H-CsA and ^3H-digoxin (0.5 µM and 1.0 µCi), MDR1 substrates, were performed using transport buffer consisting of HBSS with 10 mM HEPES and 25 mM D-glucose at a pH of 6.8 for the apical (A) compartment and 7.4 for the basolateral (B) compartment. Experiments were performed at 37°C, 5% CO2, and 95% relative humidity. Cells in the Transwell® inserts were washed 3 times with a transport buffer and allowed to equilibrate for 30 min prior to the addition of test compounds. […] To evaluate the efflux mechanism involved with berberine and berbamine, 100 µM of berberine and berbamine were placed in the donor chamber and 100 µL samples were collected in the receiver chamber at 0, 0.5, 1.0, 1.5, 2.0, 2.5, and 3.0 h and analyzed by HPLC. Each experiment was performed in duplicate and repeated for each condition tested. For experiments performed in “non-sink” conditions, 100 µL aliquots were taken from the donor and receiver chambers at the beginning and from the receiver chamber at 0.5, 1.0, 1.5, 2.0, 2.5, and 3.0 h. An equal volume of 100 µL was replaced in the chamber at each sample time point. […] A 100 µL sample was taken from the donor chamber at 3 h in order to calculate the mass balance of radioactivity to determine if adsorption to the cell culture transport apparatus had occurred. Each sample was placed in 0.9 mL of scintillation fluor (Cytoscint ES, ICN, Cosa Mesa, CA, USA) and read on a Beckman LS 6500 (Palo Alto, CA, USA) scintillation counter for ^3H activity. […]
as §1
Where A is the surface area of the monolayer (4.71 cm^2) and C0 is the initial concentration of radiolabeled probe substrate in the donor compartment. dQ/dt is the slope of the steady-state rate constant. The efflux ratio was determined by dividing the Papp in the B to A direction by the Papp in the A to B direction: Efflux ratio=PappB to A/PappA to B […]

[6] = biological target: T1, P-glycoprotein (MDCKII-MDR1 cells); experiment: Effect on 3H-CsA and 3H-digoxin transport in MDCKII-MDR1 cells; settings: for Papp (B to A) of 3H-CsA: 0.5 µM 3H-CsA; for Papp (B to A) of 3H-digoxin: 0.5 µM 3H-digoxin
[7] = design: method as in PMID 16086103; settings: renal-transplant patients; co-administration of 200 mg berberine three times a day for 12 days; cited from earlier work

T1 sequence (P08183 whole entry): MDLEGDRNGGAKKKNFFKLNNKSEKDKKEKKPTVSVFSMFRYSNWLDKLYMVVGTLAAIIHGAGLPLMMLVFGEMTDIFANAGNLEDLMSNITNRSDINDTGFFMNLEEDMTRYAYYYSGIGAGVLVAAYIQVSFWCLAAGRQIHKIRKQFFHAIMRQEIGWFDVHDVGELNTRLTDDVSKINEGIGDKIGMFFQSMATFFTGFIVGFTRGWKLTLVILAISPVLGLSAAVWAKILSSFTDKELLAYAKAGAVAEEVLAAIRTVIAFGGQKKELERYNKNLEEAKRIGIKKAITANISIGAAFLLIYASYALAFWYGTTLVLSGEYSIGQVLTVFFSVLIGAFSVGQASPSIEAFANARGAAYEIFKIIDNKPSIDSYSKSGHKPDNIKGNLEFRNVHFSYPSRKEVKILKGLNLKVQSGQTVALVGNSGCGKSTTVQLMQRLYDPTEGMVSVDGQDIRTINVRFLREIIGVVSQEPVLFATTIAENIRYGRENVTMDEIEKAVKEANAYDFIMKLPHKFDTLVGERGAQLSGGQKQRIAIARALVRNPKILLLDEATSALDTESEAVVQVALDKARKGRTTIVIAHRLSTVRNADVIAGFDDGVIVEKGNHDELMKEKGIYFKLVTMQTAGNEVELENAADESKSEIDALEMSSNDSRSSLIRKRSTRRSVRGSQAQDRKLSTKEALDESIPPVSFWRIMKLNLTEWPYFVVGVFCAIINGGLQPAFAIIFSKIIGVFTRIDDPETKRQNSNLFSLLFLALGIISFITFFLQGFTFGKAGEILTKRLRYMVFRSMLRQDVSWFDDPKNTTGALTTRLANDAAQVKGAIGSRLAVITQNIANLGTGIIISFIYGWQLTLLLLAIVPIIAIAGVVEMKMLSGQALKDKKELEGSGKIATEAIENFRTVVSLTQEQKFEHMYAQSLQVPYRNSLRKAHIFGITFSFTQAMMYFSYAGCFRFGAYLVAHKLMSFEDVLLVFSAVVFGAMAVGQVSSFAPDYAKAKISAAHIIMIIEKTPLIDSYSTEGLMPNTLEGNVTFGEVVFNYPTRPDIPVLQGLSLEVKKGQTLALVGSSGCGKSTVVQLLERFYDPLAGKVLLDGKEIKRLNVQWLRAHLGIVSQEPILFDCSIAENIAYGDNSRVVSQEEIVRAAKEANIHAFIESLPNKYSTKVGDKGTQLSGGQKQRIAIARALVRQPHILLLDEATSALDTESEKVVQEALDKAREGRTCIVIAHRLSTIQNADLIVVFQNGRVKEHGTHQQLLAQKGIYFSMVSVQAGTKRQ
Chain of P-glycoprotein (P08183 whole entry): as above

COc1ccc2cc3[n+](cc2c1OC)CCc1cc2c(cc1-3)OCO2.[Cl-] [Berberine, Berberine chloride]
Papp (B to A) of 3H-CsA ([1]; 10 µM compound): 1.79 ± 0.16 x 10^−6 cm/s
Papp (B to A) of 3H-digoxin ([1]; 10 µM compound, 0.5 µM 3H-digoxin): 2.37 ± 0.26 x 10^−6 cm/s
Papp (B to A) of 3H-CsA ([1]; 30 µM compound): 1.52 ± 0.14 x 10^−6 cm/s
Papp (B to A) of 3H-digoxin ([1]; 30 µM compound, 0.5 µM 3H-digoxin): 2.26 ± 0.29 x 10^−6 cm/s
Papp (B to A) of 3H-CsA ([1]; 100 µM compound): 1.60 ± 0.45 x 10^−6 cm/s
Papp (B to A) of 3H-digoxin ([1]; 100 µM compound, 0.5 µM 3H-digoxin): 2.93 ± 0.07 x 10^−6 cm/s
lowest concentration with significant decrease of B to A transport of 0.5 µM 3H-CsA ([1]; Caco-2 cells): 10 µM
effect on digoxin transport ([1]; Caco-2 cells, up to 30 μM, 0.5 µM 3H-digoxin): no significant effects
Papp (B to A) of 3H-CsA ([2]; 10 µM compound): 4.07 ± 0.56 x 10^−6 cm/s
Papp (B to A) of 3H-digoxin ([2]; 10 µM compound): 7.55 ± 0.46 x 10^−6 cm/s
Papp (B to A) of 3H-CsA ([2]; 30 µM compound): 4.34 ± 0.29 x 10^−6 cm/s
Papp (B to A) of 3H-digoxin ([2]; 30 µM compound): 6.95 ± 0.71 x 10^−6 cm/s
Papp A to B direction [3]: 2.35 ×10⁻⁶ cm/s
Papp B to A direction [3]: 10.4 ×10⁻⁶ cm/s
fold increase of Papp B to A compared with A to B [3]: ~4 fold
transport in the A to B direction [3]: 0.18 nmol/min
transport in the B to A direction [3]: 1.45 nmol/min
LDH assay ([4]; 150 µM): 25.93 ± 4.78%
LDH assay ([4]; 300 µM): 44.88 ± 2.09%
Papp A to B direction [5]: 1.3 ×10⁻⁶ cm/s
Papp B to A direction [5]: 15.6 ×10⁻⁶ cm/s
fold increase of Papp B to A compared with A to B [5]: approximately 12 fold
Papp (B to A) of 3H-CsA ([6]; 10 µM compound): 5.34 ± 1.56 x 10^−6 cm/s
Papp (B to A) of 3H-digoxin ([6]; 10 µM compound): 1.56 ± 0.43 x 10^−6 cm/s
Papp (B to A) of 3H-CsA ([6]; 30 µM compound): 5.17 ± 0.92 x 10^−6 cm/s
Papp (B to A) of 3H-digoxin ([6]; 30 µM compound): 1.57 ± 0.81 x 10^−6 cm/s
increase of mean area under the curve of CsA [7]: 34.5%
